Source: US20070237756A1, “Antimicrobial preparations” (PURAC BIOCHEM B.V., priority 2006, published 2007)

Key:
[1] = test system: Salmonella enterica (ATCC 13311); details: broth cultures, to a concentration of 100 mM, single amino acid
[2] = test system: Salmonella typhimurium ATCC 13311; assay: Growth in inoculated milk at 12° C., plate count; type: cell-based; details: non-fat milk; for CFU/ml, day 0: 0 days; for CFU/ml, day 2: 2 days; for CFU/ml, day 4: 4 days; for CFU/ml, day 6: 6 days
Experimental: Stock cultures of Salmonella typhimurium ATCC 13311 and Escherichia coli O157:H7 ATCC 700728 which were used to inoculate liquid cultures were routinely kept on agar plates containing brain heart infusion (Oxoid CM225, Basingstoke, United Kingdom) fortified with 1.5% agar. […] Just prior to the inoculation of the foods the cultures were diluted with a solution containing 0.1% peptone and 0.85% NaCl.
Sterile non-fat milk was obtained from a local supermarket. Appropriate quantities of amino acids were added.
Milk was cooled to 10° C. and subsequently inoculated with an appropriately diluted culture of Salmonella typhimurium. Inoculated milk samples were incubated at 12° C.
The microbial analysis of the food samples was done as follows: A sealing bag was opened and to this were added 2 times the net weight of sterile dilution fluid ([…] and 0.1% (w/v) bacteriological peptone). Samples were homogenized for 1 min in a Stomacher 400 lab blender (Seward Medical, London, England) and 50 μl of the homogenate were plated on a suitable agar medium using an Eddyjet type 1.23 spiral plater (IUL Instruments, Barcelona, Spain). Escherichia coli 0157:H7 and Salmonella typhimurium were plated on VRBG agar (Oxoid, CM0485, Basingstoke, United Kingdom). Plates were incubated for 24 hours at 30° C. and then counted.
The effect of single additions of glycine, DL-alanine and a mixture of glycine (0.67%) and DL-alanine (0.8%) on the growth of Salmonella typhimurium in milk at 12° C. is given in Table I: […]

| SMILES | effect on the growth rate of Salmonella typhimurium [1] | CFU/ml, day 0 [2] | CFU/ml, day 2 [2] | CFU/ml, day 4 [2] | CFU/ml, day 6 [2] |
| --- | --- | --- | --- | --- | --- |
| CC(N)C(=O)O (racemic) [DL-alanine] | little or no effect | 5 · 10^3 CFU/ml | 5 · 10^4 CFU/ml | 4 · 10^5 CFU/ml | 1 · 10^5 CFU/ml |
| NCC(=O)O [glycine] | little or no effect | 5 · 10^3 CFU/ml | 5 · 10^4 CFU/ml | 1 · 10^5 CFU/ml | 8 · 10^4 CFU/ml |
